In patent US9493485B2, “Spirocyclic dihydro-thiazine and dihydro-oxazine BACE inhibitors, and compositions and uses thereof” (Imago Pharmaceuticals, Inc., priority 2012, dated 2016) one finds IC50 data, which are given here for 19 molecules.

For experiment [1], the target named is T1, BACE1 (Homo sapiens (Human), UniProt P56817). Description: BACE1 AlphaScreen assay (displacement of biotinylated BACE1 binding site probe). The conditions noted are these: read-out: BACE1 AS IC50. On the procedure: (§1) BACE1 activity can be assessed in an AlphaScreen® assay. Compounds to be assessed (e.g. compounds as described in the above examples) are serially diluted 1:4 in DMSO, then plated by diluting 10 μL of compound with 40 μl of assay buffer (1×PBS, 0.01% Tween-20, pH 7.0, 0.05% BSA). The diluted compound is transferred (4 μL per well) to a 386 well assay plate and 4 μL of BACE1 enzyme ([…]) is added and incubated for 15 minutes. This assay uses a probe that is a BACE1 binding sight ligand linked to biotin, which can be displaced by test compound dependent on compound binding affinity. This of biotinylated probe (4 μL) is added and incubated for 1 hour, followed with 4 μL of donor and acceptor bead mixture and incubated for 2 hours. The fluorescent signal is read on a plate reader and the value as a function of compound concentration is used to determine the IC50. Compounds are also assessed for BACE1 and Cathepsin D activity using an FP Assay. Compounds to be assessed (e.g. compounds as described in the above examples) are serially diluted 1:3 with DMSO and each concentration point is transferred to a 96 well plate, 6 μL per well, followed by addition of 194 μL of assay buffer (100 mM sodium acetate, pH 4.5 with 0.001% Tween-20). A 10 μL compound sample from this plate is transferred to a well of a 384 well plate and combined with 10 μL per well of BACE1 enzyme (0.3 nM in assay buffer) or Cathepsin D enzyme (1.8 nM in assay buffer) and the plate is incubated at room temperature for 30 minutes.
T1 sequence (P56817 46-501): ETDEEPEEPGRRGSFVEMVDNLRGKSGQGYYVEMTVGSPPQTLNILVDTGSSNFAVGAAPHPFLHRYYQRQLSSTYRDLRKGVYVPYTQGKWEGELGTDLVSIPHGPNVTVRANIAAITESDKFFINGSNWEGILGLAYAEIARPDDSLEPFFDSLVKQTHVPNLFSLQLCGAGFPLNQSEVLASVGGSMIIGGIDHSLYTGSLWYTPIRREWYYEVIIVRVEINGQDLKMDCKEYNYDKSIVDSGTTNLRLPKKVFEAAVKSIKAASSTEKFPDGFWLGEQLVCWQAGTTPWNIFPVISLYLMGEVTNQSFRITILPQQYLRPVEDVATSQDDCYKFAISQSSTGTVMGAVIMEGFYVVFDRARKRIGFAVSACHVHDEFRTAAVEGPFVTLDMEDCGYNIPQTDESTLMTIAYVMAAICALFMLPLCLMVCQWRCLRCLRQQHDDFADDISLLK

The target of the next experiment is Cathepsin D (Homo sapiens (Human), UniProt P07339). Description: Cathepsin D FP assay. Type of experiment: biochemical. The conditions noted are these: pH 4.5, read-out: CatD FP IC50. On the procedure:
as §1

Experiment [2] addresses T1, BACE1. Description: BACE1 FP assay. The conditions noted are these: pH 4.5. Type of experiment: biochemical. As to the method:
as §1

Experiment [3] deals with BACE1 inhibition in HEKp293 cells transfected with APP751 gene (SWE293). Description: SWE293 cellular assay: reduction of Aβ peptide production, ELISA. The following applies: Homo sapiens, read-out: SWE293 ED50. Type of experiment: cell-based. As to the method: BACE1 inhibition is also assessed in a cellular assay. HEKp293 cells transfected with APP751 gene (SWE293, American Type Culture Collection CRL-1563) are used to assess compounds for reduction in levels of Aβ peptide production. SWE293 cell medium is DMEM supplemented with 10% fetal bovine serum and 2 mM L-glutamine, 1.0 mM sodium pyruvate, 25 mM Hepes Buffer, 0.4 mg/mL geneticin (G418, Gibco BRL 860-181IIJ). Cells are maintained diluting 1:10 for 4 days in T-150 flask and 35 mL of cell media. For plating, cells are rinsed with 5 mL of 1×PBS, trypsinized with 4 mL of 0.05% Tripsin for 1 minute, and 12 mL of cell media is added. These are centrifuged at 1000 rpm for 4 minutes and the media aspirated, then 8 mL of media per flask is added. Based on cell count, appropriate amounts of cell and cell media are combined, and 180 μl per well are plated (96 well) and the plates are incubated overnight at 37° C., 5% CO2. Compounds to be tested are serially diluted 1:3 in DMSO and twice in media (without G418) in V-bottom plates and incubated at room temperature. Plated cells are washed with media, 3×50 μL per well and 17 μL per well of appropriate dilution of compound is added. Plates are incubated for 2 hours, and the wash steps, compound addition and incubation are repeated. Sample is transferred to capture plate (prepared with 266 antibody, see e.g. Johnson-Wood et al., PNAS February 1997, 94: 1550-1555), along with a standard curve of Aβ-40. ELISA assay is used to assess Aβ levels, washing with TBS, 0.05% Tween20 pH 7.5, then adding 1.3 mg/mL 3D6 antibody 1:900 in specimen diluents with thimericol is added (100 μl per well) and incubated for 1 hour. Wash step is repeated and Streptavidin-AP diluted 1:1000 in specimen diluents with thimerisol is added (100 μL per well) and incubated for 1 hour. Wash step is repeated and fluorescent substrate is added, 100 μL per well and incubated for 10 minutes followed by reading the fluorescent signal on a plate reader.

Setting [4] is: dose at which Aβ level is reduced by 50%, HEKp293 SWE293 cells.

Read-outs that look alike come from different tables or passages of the source.

Chain of Cathepsin D (P07339 65-412, species assumed): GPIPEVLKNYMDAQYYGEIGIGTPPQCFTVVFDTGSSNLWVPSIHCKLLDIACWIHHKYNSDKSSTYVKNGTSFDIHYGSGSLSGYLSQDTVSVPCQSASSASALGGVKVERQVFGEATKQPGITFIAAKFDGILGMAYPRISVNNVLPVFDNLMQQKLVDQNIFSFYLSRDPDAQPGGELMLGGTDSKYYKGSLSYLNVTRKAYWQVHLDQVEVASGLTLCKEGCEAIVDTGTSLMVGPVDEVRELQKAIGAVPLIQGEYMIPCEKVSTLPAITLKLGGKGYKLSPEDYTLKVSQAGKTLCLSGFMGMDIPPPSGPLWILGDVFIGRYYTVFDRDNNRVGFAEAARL

Regarding `CC#Cc1cncc(-c2csc(C3(C)CC4(CCOCC4)SC(N)=N3)c2)c1` (stereo not drawn) [Compound 8-113, 4-methyl-4-(4-(5-(prop-1-ynyl)pyridin-3-yl)thiophen-2-yl)-9-oxa-1-thia-3-azaspiro[5.5]undec-2-en-2-amine], the IC50 on BACE1 [1] is less than 7 nM; on Cathepsin D, 1880 nM; on BACE1 [2] it was 160 nM; in experiment [3] (setting [4]), 184 nM.

Take `CC1(c2cc(NC(=O)c3ccc(Cl)cn3)ccc2F)N=C(N)OC2(CCOCC2)C1(F)F` (stereo not drawn) [Compound 9-158, N-(3-(2-amino-5,5-difluoro-4-methyl-1,9-dioxa-3-azaspiro[5.5]undec-2-en-4-yl)-4-fluorophenyl)-5-chloropicolinamide]: the IC50 came out at 15 nM at BACE1 [1], 19600 nM on Cathepsin D, 94 nM on BACE1 [2] and 182 nM in experiment [3] (setting [4]).

For `CC#Cc1cncc(-c2csc(C3(C)N=C(N)OC4(CCOCC4)C3(F)F)c2)c1` (stereo not drawn) [Compound 8-114, 5,5-difluoro-4-methyl-4-(4-(5-(prop-1-ynyl)pyridin-3-yl)thiophen-2-yl)-1,9-dioxa-3-azaspiro[5.5]undec-2-en-2-amine], the IC50 on BACE1 [1] was found to be 220 nM; at Cathepsin D, 5540 nM; at BACE1 [2], 626 nM; in experiment [3] (setting [4]), 2120 nM.

Consider `C[C@@]1(c2cc(NC(=O)c3ccc(C(F)(F)F)cn3)ccc2F)CC2(CCC(F)(F)CC2)OC(N)=N1` [Compound 9-132, (S)—N-(3-(2-amino-9,9-difluoro-4-methyl-1-oxa-3-azaspiro[5.5]undec-2-en-4-yl)-4-fluorophenyl)-5-(trifluoromethyl)picolinamide], for which the figures for the IC50 (at BACE1 [1]; in experiment [3]) were 6 nM and 11 nM, respectively.

For `C[C@@]1(c2cc(NCc3ccc(F)cn3)ccc2F)CC2(CCC2)OC(N)=N1` [Compound 10-169, (S)-8-(2-fluoro-5-((5-fluoropyridin-2-yl)methylamino)phenyl)-8-methyl-5-oxa-7-azaspiro[3.5]non-6-en-6-amine], the figures for the IC50 (on BACE1 [1]; at BACE1 [2]; in experiment [3]) were 3720 nM, 179000 nM and 5610 nM, respectively.

As to `CC#Cc1cncc(-c2csc(C3(C)CC4(COC4)SC(N)=N3)c2)c1` (stereo not drawn) [Compound 8-112, 8-methyl-8-(4-(5-(prop-1-ynyl)pyridin-3-yl)thiophen-2-yl)-2-oxa-5-thia-7-azaspiro[3.5]non-6-en-6-amine], the IC50 on BACE1 [1] came out at 17 nM; at BACE1 [2] it was 227 nM; in experiment [3] (setting [4]), 222 nM.

In the case of `COc1cnc(C(=O)Nc2ccc(F)c(C3(C)N=C(N)OC4(CCC4)C3(F)F)c2)cn1` (stereo not drawn) [Compound 9-164, N-(3-(6-amino-9,9-difluoro-8-methyl-5-oxa-7-azaspiro[3.5]non-6-en-8-yl)-4-fluorophenyl)-5-methoxypyrazine-2-carboxamide], the IC50 at Cathepsin D is more than 30000 nM; in experiment [3] (setting [4]), 195 nM.

As for `C[C@@]1(c2cc(Nc3ncnc4cc(Cl)ccc34)ccc2F)CC2(CCC2)OC(N)=N1` [Compound 11-173, (S)-8-(5-(7-chloroquinazolin-4-ylamino)-2-fluorophenyl)-8-methyl-5-oxa-7-azaspiro[3.5]non-6-en-6-amine], the IC50 amounted to 8550 nM against BACE1 [2] and 687 nM in experiment [3] (setting [4]).

Consider `C[C@@]1(c2cc(/C=C/c3ccc(Cl)cc3)ccc2F)CC2(CCC2)OC(N)=N1` [Compound 12-179, (S,E)-8-(5-(4-chlorostyryl)-2-fluorophenyl)-8-methyl-5-oxa-7-azaspiro[3.5]non-6-en-6-amine], for which the IC50 came to 510 nM on BACE1 [1], 4640 nM on BACE1 [2] and 1340 nM in experiment [3] (setting [4]).

With `COc1cc(Cl)ccc1C(=O)Nc1ccc(F)c([C@]2(C)CC3(CCC3)OC(N)=N2)c1` [Compound 9-140, (S)—N-(3-(6-amino-8-methyl-5-oxa-7-azaspiro[3.5]non-6-en-8-yl)-4-fluorophenyl)-4-chloro-2-methoxybenzamide], the figures for the IC50 (at BACE1 [1]; at BACE1 [2]; in experiment [3]) were 101 nM, 9110 nM and 342 nM, respectively.

Take `C[C@@]1(c2cc(NC(=O)C3CC3)ccc2F)CC2(CCC(F)(F)CC2)OC(N)=N1` [Compound 9-134, (S)—N-(3-(2-amino-9,9-difluoro-4-methyl-1-oxa-3-azaspiro[5.5]undec-2-en-4-yl)-4-fluorophenyl)cyclopropanecarboxamide]: the IC50 on BACE1 [1] is 801 nM; against BACE1 [2], 2330 nM; in experiment [3] (setting [4]), 882 nM.

Turning to `C[C@@]1(c2cc(NC(=O)c3ccc(C4CC4)cn3)ccc2F)CC2(CCC(F)(F)CC2)OC(N)=N1` [Compound 9-137, (S)—N-(3-(2-amino-9,9-difluoro-4-methyl-1-oxa-3-azaspiro[5.5]undec-2-en-4-yl)-4-fluorophenyl)-5-cyclopropylpicolinamide], the IC50 on BACE1 [1] was 17 nM; against BACE1 [2], 1830 nM; in experiment [3] (setting [4]) it was 88 nM.

Take `CC1(c2cc(NC(=O)c3ccc(F)cn3)ccc2F)CC2(CCCCC2)SC(N)=N1` (stereo not drawn) [Compound 9-142, N-(3-(2-amino-4-methyl-1-thia-3-azaspiro[5.5]undec-2-en-4-yl)-4-fluorophenyl)-5-fluoropicolinamide]: the IC50 in experiment [3] (setting [4]) stood at 12 nM.

With `C[C@]1(c2cc(NC(=O)c3ccc(F)cn3)ccc2F)CC2(CCOCC2)SC(N)=N1` [Compound 9-149, (R)—N-(3-(2-amino-4-methyl-9-oxa-1-thia-3-azaspiro[5.5]undec-2-en-4-yl)-4-fluorophenyl)-5-fluoropicolinamide], the IC50 was more than 1000 nM on BACE1 [1], 21500 nM on Cathepsin D and 8490 nM on BACE1 [2].

As to `C[C@]1(c2cc(NC(=O)c3ccc(Cl)cn3)ccc2F)CC2(CCOCC2)SC(N)=N1` [Compound 9-152, (R)—N-(3-(2-amino-4-methyl-9-oxa-1-thia-3-azaspiro[5.5]undec-2-en-4-yl)-4-fluorophenyl)-5-chloropicolinamide], the IC50 was 10800 nM on Cathepsin D and 1560 nM on BACE1 [2].

Consider `C[C@@]1(c2cc(NC(=O)c3ccc(F)cn3)ccc2F)N=C(N)OC2(CCOCC2)C1(F)F` [Compound 9-156, (S)—N-(3-(2-amino-5,5-difluoro-4-methyl-1,9-dioxa-3-azaspiro[5.5]undec-2-en-4-yl)-4-fluorophenyl)-5-fluoropicolinamide], for which the IC50 (at BACE1 [1]; against BACE1 [2]; in experiment [3]) was more than 30000 nM each time.

Take `C[C@@]1(c2cc(NC(=O)c3ccc(C#N)cn3)ccc2F)N=C(N)OC2(CCC2)C1(F)F` [Compound 9-163, (S)—N-(3-(6-amino-9,9-difluoro-8-methyl-5-oxa-7-azaspiro[3.5]non-6-en-8-yl)-4-fluorophenyl)-5-cyanopicolinamide]: the figures for the IC50 (on BACE1 [1]; on BACE1 [2]; in experiment [3]) were 13400 nM, 38100 nM and more than 30000 nM, respectively.

As for `C[C@@]1(c2cc(/C=C/c3ccc(F)cc3)ccc2F)CC2(CCC2)OC(N)=N1` [Compound 12-177, (S,E)-8-(2-fluoro-5-(4-fluorostyryl)phenyl)-8-methyl-5-oxa-7-azaspiro[3.5]non-6-en-6-amine], the IC50 on BACE1 [1] was found to be 1160 nM; against BACE1 [2] it was 21700 nM; in experiment [3] it was 1210 nM.

As for `COc1cnc(C(=O)Nc2ccc(F)c([C@]3(C)CC4(CCOCC4)SC(N)=N3)c2)cn1` [Compound 9-153, (S)—N-(3-(2-amino-4-methyl-9-oxa-1-thia-3-azaspiro[5.5]undec-2-en-4-yl)-4-fluorophenyl)-5-methoxypyrazine-2-carboxamide], the values for the IC50 (at Cathepsin D; on BACE1 [2]; in experiment [3] (setting [4])) were more than 30000 nM, 33 nM and less than 123 nM, respectively.
